Experimental data published in PubChem BioAssay AID306 (DTP/NCI, 2004).
Several values for one entry are separate records, joined by “and”; a condition that tells them apart may be missing. Identical values can stand only once. Toxic doses and inconclusive results are not listed.

Tested on: BDF1 mice, L1210 Methyl-GAG-resistant leukemia, survival T/C
Assay: NCI In Vivo Anticancer Drug Screen. Data for tumor model L1210 Leukemia resistant to Methyl-GAG; NSC 32946 (subcutaneous) in B6D2F1 (BDF1) mice
Conditions: endpoint: mean survival time, higher = longer survival
Description: The antitumor activity of compounds was measured in mice bearing transplantable tumors. Survival or tumor size were measured and the results are expressed as the measurement made in the treated group (T) divided by the measurement made in the vehicle treated control group (C). The tumor model used in this assay is L1210 Leukemia resistant to Methyl-GAG; NSC 32946 (subcutaneous) in B6D2F1 (BDF1) mice

[1] = dose: 12.5 mg/kg/injection, schedule: Q01DX Z (ip), vehicle: other
[2] = dose: 50.0 mg/kg/injection, schedule: Q01DX Z (ip), vehicle: other
[3] = dose: 100.0 mg/kg/injection, schedule: Q01DX Z (ip), vehicle: other
[4] = dose: 200.0 mg/kg/injection, schedule: Q01DX Z (ip), vehicle: other
[5] = dose: 12.5 mg/kg/injection, schedule: Q01DX Z (ip), vehicle: carboxymethylcellulose (CMC)
[6] = dose: 50.0 mg/kg/injection, schedule: Q01DX Z (ip), vehicle: carboxymethylcellulose (CMC)
[7] = dose: 100.0 mg/kg/injection, schedule: Q01DX Z (ip), vehicle: carboxymethylcellulose (CMC)
[8] = dose: 5.0 mg/kg/injection, schedule: Q01DX Z (ip), vehicle: saline
[9] = dose: 10.0 mg/kg/injection, schedule: Q01DX Z (ip), vehicle: saline
[10] = dose: 500.0 mg/kg/injection, schedule: Q01DX Z (ip), vehicle: carboxymethylcellulose (CMC)
[11] = dose: 12.5 mg/kg/injection, schedule: Q01DX Z (ip), vehicle: water
[12] = dose: 25.0 mg/kg/injection, schedule: Q01DX Z (ip), vehicle: carboxymethylcellulose (CMC)
[13] = dose: 25.0 mg/kg/injection, schedule: Q01DX Z (ip), vehicle: water
[14] = dose: 50.0 mg/kg/injection, schedule: Q01DX Z (ip), vehicle: water

SMILES: CCCNc1ncnc2[nH]ncc12
- T/C (dose: 5.0 mg/kg/injection, schedule: Q01DX Z (ip), vehicle: water): 96 % of control
- T/C (dose: 10.0 mg/kg/injection, schedule: Q01DX Z (ip), vehicle: water): 93 % of control
- T/C (dose: 20.0 mg/kg/injection, schedule: Q01DX Z (ip), vehicle: water): 120 % of control
- T/C (dose: 40.0 mg/kg/injection, schedule: Q01DX Z (ip), vehicle: water): 88 % of control and 112 % of control

SMILES: Cc1n[nH]c(=O)[nH]c1=O
- T/C (dose: 0.8 mg/kg/injection, schedule: Q01DX Z (ip), vehicle: other): 100 % of control
- T/C (dose: 1.6 mg/kg/injection, schedule: Q01DX Z (ip), vehicle: other): 102 % of control
- T/C (dose: 3.1 mg/kg/injection, schedule: Q01DX Z (ip), vehicle: other): 98 % of control
- T/C (dose: 6.25 mg/kg/injection, schedule: Q01DX Z (ip), vehicle: other): 120 % of control
- T/C (dose: 6.3 mg/kg/injection, schedule: Q01DX Z (ip), vehicle: other): 100 % of control
- T/C [1]: 101 % of control
- T/C (dose: 25.0 mg/kg/injection, schedule: Q01DX Z (ip), vehicle: other): 100 % of control
- T/C [2]: 95 % of control and 103 % of control
- T/C [3]: 91 % of control
- T/C [4]: 88 % of control
- T/C (dose: 400.0 mg/kg/injection, schedule: Q01DX Z (ip), vehicle: other): 89 % of control

SMILES: CSCS(=O)C[C@H](CO)NC(=O)/C=C/c1c(C)[nH]c(=O)[nH]c1=O (some centres not stated)
- T/C (dose: 0.06 mg/kg/injection, schedule: Q01DX Z (ip), vehicle: saline): 97 % of control
- T/C (dose: 0.12 mg/kg/injection, schedule: Q01DX Z (ip), vehicle: saline): 97 % of control
- T/C (dose: 0.25 mg/kg/injection, schedule: Q01DX Z (ip), vehicle: saline): 106 % of control and 113 % of control
- T/C (dose: 0.5 mg/kg/injection, schedule: Q01DX Z (ip), vehicle: saline): 112 % of control
- T/C (dose: 1.0 mg/kg/injection, schedule: Q01DX Z (ip), vehicle: saline): 96 % of control

SMILES: CN(Cc1cnc2nc(N)nc(N)c2n1)c1c(Cl)cc(C(=O)NC(CCC(=O)O)C(=O)O)cc1Cl (configuration not stated)
- T/C [5]: 116 % of control
- T/C [6]: 195 % of control
- T/C [7]: 317 % of control

SMILES: C[C@H]1C(=O)O[C@@H]2CCN3CC=C(COC(=O)[C@](C)(O)[C@@]1(C)O)[C@H]23
- T/C (dose: 1.88 mg/kg/injection, schedule: Q01DX Z (ip), vehicle: carboxymethylcellulose (CMC)): 94 % of control
- T/C (dose: 3.75 mg/kg/injection, schedule: Q01DX Z (ip), vehicle: carboxymethylcellulose (CMC)): 96 % of control
- T/C (dose: 7.5 mg/kg/injection, schedule: Q01DX Z (ip), vehicle: carboxymethylcellulose (CMC)): 92 % of control
- T/C (dose: 15.0 mg/kg/injection, schedule: Q01DX Z (ip), vehicle: carboxymethylcellulose (CMC)): 92 % of control and 99 % of control
- T/C (dose: 30.0 mg/kg/injection, schedule: Q01DX Z (ip), vehicle: carboxymethylcellulose (CMC)): 105 % of control
- T/C (dose: 60.0 mg/kg/injection, schedule: Q01DX Z (ip), vehicle: carboxymethylcellulose (CMC)): 106 % of control
- T/C (dose: 120.0 mg/kg/injection, schedule: Q01DX Z (ip), vehicle: carboxymethylcellulose (CMC)): 113 % of control

SMILES: N[C@@H](Cc1ccc(N(CCCl)CCCl)cc1)C(=O)O
- T/C (dose: 1.25 mg/kg/injection, schedule: Q01DX Z (ip), vehicle: saline): 92 % of control
- T/C (dose: 2.5 mg/kg/injection, schedule: Q01DX Z (ip), vehicle: saline): 106 % of control
- T/C [8]: 123 % of control
- T/C [9]: 92 % of control

SMILES: OCC1OC(n2cnc3c(=S)nc[nH]c32)C(O)C1O (configuration not stated)
- T/C (dose: 2.0 mg/kg/injection, schedule: Q01DX Z (ip), vehicle: carboxymethylcellulose (CMC)): 100 % of control
- T/C (dose: 4.0 mg/kg/injection, schedule: Q01DX Z (ip), vehicle: carboxymethylcellulose (CMC)): 100 % of control
- T/C (dose: 8.0 mg/kg/injection, schedule: Q01DX Z (ip), vehicle: carboxymethylcellulose (CMC)): 107 % of control
- T/C (dose: 16.0 mg/kg/injection, schedule: Q01DX Z (ip), vehicle: carboxymethylcellulose (CMC)): 115 % of control
- T/C (dose: 31.0 mg/kg/injection, schedule: Q01DX Z (ip), vehicle: carboxymethylcellulose (CMC)): 120 % of control
- T/C [10]: 93 % of control

SMILES: CN(C)c1ccc(/C=C/c2ccnc3ccccc23)cc1
- T/C (dose: 3.1 mg/kg/injection, schedule: Q01DX Z (ip), vehicle: water): 102 % of control
- T/C (dose: 3.12 mg/kg/injection, schedule: Q01DX Z (ip), vehicle: carboxymethylcellulose (CMC)): 100 % of control
- T/C (dose: 6.25 mg/kg/injection, schedule: Q01DX Z (ip), vehicle: carboxymethylcellulose (CMC)): 96 % of control
- T/C (dose: 6.25 mg/kg/injection, schedule: Q01DX Z (ip), vehicle: water): 97 % of control
- T/C [5]: 94 % of control
- T/C [11]: 97 % of control
- T/C [12]: 100 % of control
- T/C [13]: 100 % of control
- T/C [6]: 94 % of control
- T/C [14]: 91 % of control
- T/C [7]: 100 % of control

SMILES: C1CN1c1nc(N2CC2)nc(N2CC2)n1
- T/C (dose: 62.5 micrograms/kg/injection, schedule: Q01DX Z (ip), vehicle: saline): 96 % of control
- T/C (dose: 250.0 micrograms/kg/injection, schedule: Q01DX Z (ip), vehicle: saline): 97 % of control
- T/C (dose: 1000.0 micrograms/kg/injection, schedule: Q01DX Z (ip), vehicle: saline): 110 % of control

SMILES: Nc1ncnc2c1ccn2C1OC(CO)C(O)C1O (configuration not stated)
- T/C (dose: 0.31 mg/kg/injection, schedule: Q01DX Z (ip), vehicle: carboxymethylcellulose (CMC)): 89 % of control and 97 % of control
- T/C (dose: 0.63 mg/kg/injection, schedule: Q01DX Z (ip), vehicle: carboxymethylcellulose (CMC)): 91 % of control and 102 % of control
- T/C (dose: 1.25 mg/kg/injection, schedule: Q01DX Z (ip), vehicle: carboxymethylcellulose (CMC)): 97 % of control and 112 % of control
- T/C (dose: 2.5 mg/kg/injection, schedule: Q01DX Z (ip), vehicle: carboxymethylcellulose (CMC)): 94 % of control

SMILES: S=c1nc[nH]c2nc[nH]c12
- T/C [1]: 107 % of control
- T/C (dose: 37.5 mg/kg/injection, schedule: Q01DX Z (ip), vehicle: other): 252 % of control
- T/C [2]: 153 % of control and 192 % of control
- T/C (dose: 75.0 mg/kg/injection, schedule: Q01DX Z (ip), vehicle: other): 157 % of control
- T/C [3]: 164 % of control
- T/C [4]: 97 % of control and 119 % of control
- T/C (dose: 300.0 mg/kg/injection, schedule: Q01DX Z (ip), vehicle: other): 98 % of control

SMILES: CN(C)c1nc(N(C)C)nc(N(C)C)n1
- T/C (dose: 62.5 mg/kg/injection, schedule: Q01DX Z (ip), vehicle: carboxymethylcellulose (CMC)): 100 % of control
- T/C (dose: 125.0 mg/kg/injection, schedule: Q01DX Z (ip), vehicle: carboxymethylcellulose (CMC)): 95 % of control
- T/C (dose: 250.0 mg/kg/injection, schedule: Q01DX Z (ip), vehicle: carboxymethylcellulose (CMC)): 100 % of control
- T/C [10]: 100 % of control
- T/C (dose: 1000.0 mg/kg/injection, schedule: Q01DX Z (ip), vehicle: methylcellulose (MC)): 98 % of control

SMILES: S=P(N1CC1)(N1CC1)N1CC1
- T/C (dose: 0.62 mg/kg/injection, schedule: Q01DX Z (ip), vehicle: saline): 111 % of control
- T/C [8]: 150 % of control
- T/C [9]: 110 % of control

SMILES: C[C@@H]1C[C@@H]([C@H](O)CC2CC(=O)NC(=O)C2)C(=O)[C@@H](C)C1
- T/C (dose: 9.4 mg/kg/injection, schedule: Q01DX Z (ip), vehicle: water): 90 % of control
- T/C [11]: 114 % of control and 122 % of control (2×)
- T/C (dose: 18.8 mg/kg/injection, schedule: Q01DX Z (ip), vehicle: water): 93 % of control
- T/C [13]: 156 % of control
- T/C (dose: 37.5 mg/kg/injection, schedule: Q01DX Z (ip), vehicle: water): 124 % of control
- T/C [14]: 108 % of control

SMILES: Oc1cc(CN(CCCl)CCCl)c(O)cc1CN(CCCl)CCCl
- T/C (dose: 1.88 mg/kg/injection, schedule: Q01DX Z (sc), vehicle: steriod suspending solution): 103 % of control
- T/C (dose: 3.75 mg/kg/injection, schedule: Q01DX Z (sc), vehicle: steriod suspending solution): 111 % of control
- T/C (dose: 7.5 mg/kg/injection, schedule: Q01DX Z (sc), vehicle: steriod suspending solution): 115 % of control

SMILES: O=C(Nc1ccc(C2=NCCN2)cc1)c1ccc(C(=O)Nc2ccc(C3=NCCN3)cc2)cc1
- T/C [12]: 98 % of control
- T/C [6]: 98 % of control
- T/C [7]: 124 % of control
- T/C (dose: 200.0 mg/kg/injection, schedule: Q01DX Z (ip), vehicle: carboxymethylcellulose (CMC)): 236 % of control
- T/C (dose: 400.0 mg/kg/injection, schedule: Q01DX Z (ip), vehicle: carboxymethylcellulose (CMC)): 104 % of control
